# Measured values: PubChem BioAssay AID2842 (Southern Research Institute, 2010)
# System: M. tuberculosis H37Rv growth inhibition
# Test: Mycobacterium tuberculosis H37Rv growth inhibition, putative kinase inhibitor library, confirmatory dose response (AID 2842);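 also: bacteria incubated one week before Alamar blue readout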
row,Compound,IC90
1,CCc1ccc(-c2nnc3c4cc5c(cc4n(Cc4ccccc4F)cc2-3)OCCO5)cc1,6.34 µg/mL
2,CSc1ccccc1-c1nnc(NC(=O)c2cc([N+](=O)[O-])ccc2Cl)o1,2.12 µg/mL
3,Clc1cc(Cl)c2nc(N3CCCC3)sc2c1,19 µg/mL
4,Cc1ccc(-c2nnc(NC(=O)c3ccc(Cl)cc3Cl)o2)c(C)c1,4.12 µg/mL
5,Cc1cccc(N2CCN(C(=O)CCCCCn3c(=O)[nH]c4ccsc4c3=O)CC2C)c1 (centres undefined),19.5 µg/mL
6,Cc1ccc(C)c2[nH]c(=O)c(CCNC(=S)NCCn3ccc4ccccc43)cc12,3.53 µg/mL
7,O=C(Nc1nnc(-c2ccc(Cl)cc2)o1)c1ccco1,1.11 µg/mL
8,Cc1ccc2sc(NNC(=O)c3nc4ccccc4s3)nc2c1C,3.31 µg/mL
9,COc1ccc2nc(N3CCCC3)sc2c1,8.36 µg/mL
10,O=C(Nc1nnc(-c2cc(Cl)ccc2Cl)o1)c1ccccc1F,0.43 µg/mL
11,CC(C)C(=O)Nc1nnc(-c2ccc3c(c2)OCCO3)o1,52.3 µg/mL
12,COc1cccc(OCCN2CCN(c3cc(C)nc4c(-c5ccccc5)cnn34)CC2)c1,12 µg/mL
13,C/C(=N\NC(=O)c1cc(-c2ccc(Cl)s2)[nH]n1)c1ccco1,6.9 µg/mL
14,Cc1cc(NCCCn2ccnc2)n2ncc(-c3ccccc3)c2n1,3.12 µg/mL
15,COc1ccc(C2CC(c3c(-c4ccccc4)c4cc(Br)ccc4[nH]c3=O)=NN2C(=O)c2ccccc2)cc1 (centres undefined),1.07 µg/mL
16,CSc1nc2cc(NC(=S)NC(=O)c3ccccc3)ccc2s1,6.89 µg/mL
17,O=C(CCc1ccccc1)Nc1nnc(-c2ccc(Cl)s2)o1,2.27 µg/mL
18,O=C(Nc1nnc(-c2cc(Cl)ccc2Cl)o1)c1ccc(S(=O)(=O)N2CCCC2)cc1,25.6 µg/mL
19,COc1ccc(-c2nnc3c4cc5c(cc4n(Cc4cccc(OC)c4)cc2-3)OCCO5)cc1,5.28 µg/mL
20,CS(=O)(=O)c1ccc2nc(Nc3nc4ccc(Cl)cc4s3)sc2c1,9.7 µg/mL
21,N=c1sc(/C=C2\C=Nc3ccccc32)c(O)n1-c1nccs1,< 0.2 µg/mL
22,COc1ccccc1Cn1cc2c(-c3ccc(C)cc3)nnc-2c2cc(C)ccc21,3.48 µg/mL
23,Nc1c(C(=O)Nc2ccc(Br)cc2)sc2nc3c(c(-c4cccs4)c12)CCCC3,5.12 µg/mL

row,Compound,IC90
1,O=C(Cc1ccccc1)Nc1nnc(-c2ccc(Cl)cc2)o1,14.1 µg/mL
2,COc1ccc(-c2nc(N3CCC(C)CC3)nc3n[nH]c(N)c23)cc1,2.14 µg/mL
3,COc1ccc2sc(Nc3nc(-c4ccccn4)cs3)nc2c1,1.59 µg/mL
4,CCOc1cccc2sc(Nc3nc4ccc(OC)cc4s3)nc12,3.19 µg/mL
5,Cc1cc(NC(=O)/C=C/c2ccc([N+](=O)[O-])s2)no1,4.04 µg/mL
6,O=C(Nc1ncc(Cc2ccc(F)cc2)s1)c1cccc(-n2cnnn2)c1,10.2 µg/mL
7,CC(=O)Nc1ccc2nc(Nc3nc4ccc(C(C)C)cc4s3)sc2c1,2 µg/mL
8,O=C(NNc1nc2c(F)cc(F)cc2s1)c1nc2ccccc2s1,21.8 µg/mL
9,COc1cc(C(=O)Nc2nnc(-c3ccc(C)cc3C)o2)cc(OC)c1OC,2.53 µg/mL
10,COC(=O)c1c(NC(=O)C(c2ccccc2)c2ccccc2)sc2c1CC(C)(C)NC2(C)C,6.07 µg/mL
11,O=C(Nc1nnc(-c2cc(Cl)ccc2Cl)o1)c1cccs1,0.76 µg/mL
12,Cc1ccc(C(=O)Nc2sc3c(c2C(N)=O)CCN(C)C3)cc1C,18.8 µg/mL
13,CCOC(=O)N1CCN(c2ncnc3c2cnn3-c2ccc(C)c(Cl)c2)CC1,12.2 µg/mL
14,NC(=O)c1c(NC(=O)c2ccc([N+](=O)[O-])s2)sc2c1CCN(Cc1ccccc1)C2,0.46 µg/mL
15,O=C(Nc1nnc(-c2ccc(Cl)cc2)o1)c1ccc([N+](=O)[O-])o1,0.26 µg/mL
16,COc1ccc(-c2nnc3c4cc(OC)c(OC)cc4n(Cc4ccccc4OC)cc2-3)cc1,5.67 µg/mL
17,CN1CCc2c(sc(NC(=O)c3ccc4ccccc4c3)c2C(N)=O)C1,11.9 µg/mL
18,COc1ccc(C)c2sc(N3CCc4ccccc4C3)nc12,11.1 µg/mL
19,O=C(Nc1nnc(-c2ccc3c(c2)OCCO3)o1)C1CC1,33.9 µg/mL
20,Clc1ccc(Nc2ccc(NCc3ccccc3)nn2)cc1,5.5 µg/mL
21,CCc1cccc(OCC(O)Cn2c(NCc3ccccc3)nc3c2c(=O)[nH]c(=O)n3C)c1 (centres undefined),22.1 µg/mL
22,O=C(Cc1ccccc1)Nc1nnc(-c2ccc(F)cc2)o1,8.35 µg/mL
23,Cc1ccc(-c2nnc(NC(=O)c3ccc(Cl)s3)o2)c(C)c1,2.01 µg/mL

row,Compound,IC90
1,O=C1c2cccc3cccc(c23)C(=O)N1CCc1ccc(S(=O)(=O)N2CCCCC2)cc1,5.87 µg/mL
2,Fc1ccc(Nc2nc(Nc3cccc(F)c3)nc3nccnc23)cc1,60.6 µg/mL
3,O=C(Nc1nnc(-c2cc(Cl)ccc2Cl)o1)C1=COCCO1,25.7 µg/mL
4,c1ccc2c(c1)CCN(c1nc3cc4c(cc3s1)OCCO4)C2,16 µg/mL
5,Cc1ccc(C(=O)Nc2cccc(-c3ccc4nnc(C)n4n3)c2)cc1C,12.9 µg/mL
6,COc1cc(OC)cc(C(=O)N(CCCn2ccnc2)c2nc3cc(C)cc(C)c3s2)c1,6.63 µg/mL
7,COC(=O)c1ccc(C(=O)NNc2nc3c(C)cc(C)cc3s2)cc1,6.49 µg/mL
8,O=C(Nc1nnc(-c2ccccc2)o1)c1ccc2c(c1)CCCC2,15.5 µg/mL
9,O=C(Nc1nnc(-c2ccc3c(c2)CCCC3)o1)c1ccc(Cl)cc1Cl,0.91 µg/mL
10,CCOC(=O)COc1ccc2c(C)c(-c3ccc(OC)c(OC)c3)c(=O)oc2c1,2.34 µg/mL
11,Cc1ccc(C)c(-c2nnc(NC(=O)c3cccc4ccccc34)o2)c1,0.41 µg/mL
12,Cc1ccc2sc(N(CCCn3ccnc3)C(=O)c3ccco3)nc2c1C,0.58 µg/mL
13,C/C(=N\Nc1nc(=O)[nH]nc1C)c1ccccc1O,< 0.2 µg/mL
14,Cc1ccc(C)c(-c2nnc(NC(=O)c3cc(Cl)sc3Cl)o2)c1,2.16 µg/mL
15,O=C(Nc1nnc(-c2ccccc2Cl)o1)C1=COCCO1,4.3 µg/mL
16,O=C(NCCSc1c[nH]c2ccccc12)Nc1c[nH]c2ccccc12,10.2 µg/mL
17,Cc1ccc(C)c(-c2nnc(NC(=O)c3ccc([N+](=O)[O-])cc3)o2)c1,78.5 µg/mL
18,C=CCOC(=O)COc1ccc2c(-c3cc4ccccc4oc3=O)cc(=O)oc2c1,4.35 µg/mL
19,CCN1CCc2c(sc(NC(=O)c3ccc([N+](=O)[O-])o3)c2C(N)=O)C1,6.91 µg/mL
20,Cc1cc(Nc2ccc(C)c(Cl)c2)n2ncc(-c3ccccc3)c2n1,3.35 µg/mL
21,COC(=O)c1c(NC(=O)c2ccccc2Cl)sc2c1CC(C)(C)NC2(C)C,44.8 µg/mL
22,CC(C)(C)C(=O)Nc1nnc(-c2cc(Cl)ccc2Cl)o1,< 0.2 µg/mL
23,CSc1cccc2sc(Nc3cccc(Br)c3)nc12,6.73 µg/mL

row,Compound,IC90
1,COc1ccccc1Cn1cc2c(-c3ccccc3)nnc-2c2cc(OC)c(OC)cc21,7.59 µg/mL
2,CCCC(=O)Nc1nnc(-c2ccccc2)o1,22 µg/mL
3,Cc1ccc(C)c(-c2nnc(NC(=O)c3ccc(Cl)cc3)o2)c1,22.7 µg/mL
4,CS(=O)(=O)NNc1ccc([N+](=O)[O-])cc1[N+](=O)[O-],11.6 µg/mL
5,O=C(Nc1nnc(-c2ccc3c(c2)OCCO3)o1)c1ccccc1Oc1ccccc1,3.77 µg/mL
6,CS(=O)(=O)c1ccc(CC(=O)Nc2nnc(-c3ccc4c(c3)CCCC4)o2)cc1,13.9 µg/mL
7,CCOC(=O)C(C)Sc1ncnc2c1nnn2Cc1ccc(F)cc1 (centres undefined),0.51 µg/mL
8,CCS(=O)(=O)c1cccc(C(=O)Nc2nnc(-c3ccc4c(c3)CCCC4)o2)c1,16.3 µg/mL
9,O=C1Nc2ccccc2/C1=C/C(=O)c1ccc([N+](=O)[O-])cc1,47.7 µg/mL
10,O=C(O)c1ccccc1NC1=C(Cl)C(=O)N(c2cccc(Cl)c2)C1=O,21.3 µg/mL
11,CCc1ccc2nc(Nc3nc4ccc(S(C)(=O)=O)cc4s3)sc2c1,7.52 µg/mL
12,O=C1N/C(=N/N=C/c2ccccc2O)SC1Cc1ccc(Cl)cc1Cl (centres undefined),1.32 µg/mL
13,Cc1cn2c3c(=O)[nH]c(=O)n(C)c3nc2n1CCCNc1ccccc1,3.69 µg/mL
14,O=C(Cc1cccc2ccccc12)Nc1nnc(-c2cccs2)o1,40.1 µg/mL
15,Fc1cccc2sc(Nc3nc(-c4ccccn4)cs3)nc12,< 0.2 µg/mL
16,O=C(Nc1nnc(-c2ccc(Cl)s2)o1)c1ccc([N+](=O)[O-])o1,0.85 µg/mL
17,NC(=O)c1oc2ccccc2c1NC(=O)C1CC(=O)N(c2ccc(Cl)cc2)C1 (centres undefined),3.15 µg/mL
18,O=C(Nc1nnc(-c2ccc(Cl)cc2)o1)c1ccccc1Br,2.46 µg/mL
19,O=S(=O)(Nc1cc(Cl)c(O)c2ccccc12)c1ccc(F)cc1,6.28 µg/mL
20,CCSc1ccc(CC(=O)Nc2nnc(-c3ccc4c(c3)OCCO4)o2)cc1,3.57 µg/mL
21,Cc1ccc(Cl)cc1N1CCN(CC(O)COc2ccccc2[N+](=O)[O-])CC1 (centres undefined),13 µg/mL
22,CC(C)(C)C(=O)Nc1nnc(-c2ccc3c(c2)CCCC3)o1,4.73 µg/mL
23,Cc1cccc(C(=O)Nc2nnc(-c3ccccn3)o2)c1,19.3 µg/mL

row,Compound,IC90
1,CCOc1ccc2c(c1)c1nnc(-c3ccc(OC)cc3)c-1cn2Cc1cccc(C)c1,20.7 µg/mL
2,CCOc1ccc2nc(N(CCCn3ccnc3)C(=O)Cc3ccc(F)cc3)sc2c1,3.05 µg/mL
3,Cc1ccc(-c2nnc(NC(=O)c3ccco3)o2)c(C)c1,4.51 µg/mL
4,CCOc1ccc2nc(N3CCCC3)sc2c1,17.2 µg/mL
5,O=C(Nc1nnc(-c2ccco2)o1)c1ccc(Oc2ccccc2)cc1,< 0.2 µg/mL
6,CC(=O)N1CCc2c(sc(NC(=O)c3ccc(C)c(C)c3)c2C(N)=O)C1,3.4 µg/mL
7,CSc1cccc2sc(Nc3ccc(Cl)cc3)nc12,2.31 µg/mL
8,Cc1cc(C)c2nc(NNC(=O)c3nc4ccccc4s3)sc2c1,4.23 µg/mL
9,CC(=O)c1cccc(Nc2nc(Nc3ccc(F)c(Cl)c3)nc(N3CCOCC3)n2)c1,8.38 µg/mL
10,CC(C)OC(=O)COc1ccc2cc(-c3ccccc3)c(=O)oc2c1,2.97 µg/mL
11,O=C(Cc1cccc2ccccc12)Nc1nnc(-c2ccc(F)cc2)o1,22.4 µg/mL
12,O=C(CSc1c[nH]c2ccccc12)Nc1ccc(Br)cc1,3.2 µg/mL
13,CCOC(=O)c1c(NC(=O)c2ccccc2Br)sc2c1CC(C)(C)NC2(C)C,8.85 µg/mL
14,COc1ccccc1-c1nnc(Nc2nc3c(F)cccc3s2)o1,3.16 µg/mL
15,COc1ccc(-c2nc(C(N)=O)c3[nH]c(=O)n(-c4ccc(C(C)(C)C)cc4)c3n2)c(OC)c1,17.3 µg/mL
16,CC1(C)Cc2c(sc(NC(=O)c3ccc(Cc4ccccc4)cc3)c2C(N)=O)C(C)(C)N1,10.4 µg/mL
17,COC(=O)c1ccc(NC(=O)CSc2nc(-c3ccccc3C)ns2)cc1,0.79 µg/mL
18,O=C(NCCSc1c[nH]c2ccccc12)c1cc2ccccc2oc1=O,1.58 µg/mL
19,O=C(Nc1nnc(-c2ccco2)o1)C1CCCCC1,50.4 µg/mL
20,Cc1ccc(C)c(-c2nnc(NC(=O)c3ccccc3F)o2)c1,< 0.2 µg/mL
21,O=C(c1ccco1)N(CCCn1ccnc1)c1nc2c(F)cc(F)cc2s1,0.75 µg/mL
22,Fc1cccc2sc(Nc3nc4cc5c(cc4s3)OCO5)nc12,11.1 µg/mL
